In publication PMC3478977, “Enabling structure-based drug design of Tyk2 through co-crystallization with a stabilizing aminoindazole inhibitor” (BMC Structural Biology, 2012):

How the values were obtained:
Jak1 = molecular target: T1, Jak1 (Homo sapiens, UniProt P23458); assay: trFRET kinase activity assay, Jak1; type: biochemical; conditions: Jak1 (845–1142) GST fusion, 1 μM ATP, mean and standard error; read-out: IC50, inhibition of Jak1 enzyme activity
T1 construct: Jak1 (residues 845–1142) was expressed in Sf9 cells; GST; made in house; host or cells: Sf9 insect cells
T1 sequence (P23458 845-1142, species assumed): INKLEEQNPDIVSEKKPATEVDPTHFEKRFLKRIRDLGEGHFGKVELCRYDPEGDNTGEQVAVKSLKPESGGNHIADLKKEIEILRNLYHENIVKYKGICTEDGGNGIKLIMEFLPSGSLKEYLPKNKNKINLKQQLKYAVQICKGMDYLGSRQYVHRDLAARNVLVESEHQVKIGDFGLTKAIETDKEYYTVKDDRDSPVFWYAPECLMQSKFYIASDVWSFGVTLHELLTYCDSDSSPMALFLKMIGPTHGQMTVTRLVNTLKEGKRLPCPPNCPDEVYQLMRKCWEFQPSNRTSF
Protocol: (§1) After 60 min incubation at room temperature, the reaction was quenched by addition of EDTA (final conc. 100 μM) and developed by addition of revelation reagents (final approximate concentrations: 30 mM HEPES pH 7.0, 0.06% BSA, 0.006% Tween-20, 0.24 M KF, 80 ng/mL PT66K (europium-labelled anti-phosphotyrosine antibody, cat #61T66KLB, Cisbio, Bedford, MA) and 3.12 μg/mL SAXL (Phycolink streptavidin-allophycocyanin acceptor, cat #PJ25S, Prozyme, San Leandro, CA)). The developed reaction was incubated in the dark either at 4°C overnight or at room temperature for ~1 h, then read with a time-resolved fluorescence detector (Rubystar, BMG Labtech) using a 337 nm laser for excitation and emission wavelengths of 620 nm and 665 nm. Within the linear range of the assay, this signal is directly related to phosphorylated product and was used to calculate IC50 values. Typically, seven-point inhibitor dilutions (5-fold; from 50 μM to 0.0032 μM) were used. IC50 values were calculated by fitting the following equation: […]
(§2) where [I] is total inhibitor concentration, Y is the percentage of activity (relative to that seen in no-inhibitor control) at a given inhibitor concentration, and Ymax is the maximum activity generated in the absence of inhibitor.
(§3) Purified Jak2 and Jak3 were purchased from Upstate/Millipore (cat numbers #14–640 and #14–629). […]

[1] = tested on: Mouse Tyk2 kinase domain (residues 870–1170; Asp1016Ala mutant); assay: Partial proteolysis of Tyk2 kinase domain by thermolysin with and without ligand; conditions: 30 μM compound, sum of ~27 and ~29 kDa peaks, 0 to 90 minutes, room temperature
Protocol: Mouse Tyk2 kinase domain (0.25 mg/mL, residues 870–1170; Asp1016Ala mutant) was incubated for 0 to 90 minutes with thermolysin (0.25 mg/mL) at room temperature in 50 mM HEPES pH 6.7, 150 mM NaCl, 5% glycerol, and 2.5 mM CaCl2 in the presence and absence of 30 μM Compound 2. EDTA (final conc 100 mM) was used as stop solution to quench the proteolysis reactions. Samples were separated by use of a Caliper LC90 system and the remaining substrate and product bands were quantitated. Intact (undigested) Tyk2 ran in this system at ~29 kDa. Addition of thermolysin yielded a partial digestion product of ~27 kDa (Additional file 1: Figure 1) within 5 minutes, which was unaffected by addition of Compound 2. Subsequent degradation products were strongly influenced by the presence of Compound 2 (Additional file 1: Figure S1). Therefore the sum of the intensities of the 29 and 27 kDa peaks was used as a measure of inhibitor-dependent resistance to thermolysin digestion. […]
In the absence of inhibitor, a 20 kDa fragment is generated after ~1-5 minutes and subsequently degraded. […] Quantitated values of Tyk2 peaks of ~27 and ~29 kDa during digestion with thermolysin, in the absence or presence of 30 μM Compound 2 were used to monitor overall degradation rates in Figure 2.

Jak2 = molecular target: T2, Jak2 (Homo sapiens, UniProt O60674); assay: trFRET kinase activity assay, Jak2; type: biochemical; conditions: 1 μM ATP, mean and standard error; read-out: IC50, inhibition of Jak2 enzyme activity
T2 construct: purchased Upstate/Millipore #14–640
T2 sequence (O60674 808-1132 limits assumed): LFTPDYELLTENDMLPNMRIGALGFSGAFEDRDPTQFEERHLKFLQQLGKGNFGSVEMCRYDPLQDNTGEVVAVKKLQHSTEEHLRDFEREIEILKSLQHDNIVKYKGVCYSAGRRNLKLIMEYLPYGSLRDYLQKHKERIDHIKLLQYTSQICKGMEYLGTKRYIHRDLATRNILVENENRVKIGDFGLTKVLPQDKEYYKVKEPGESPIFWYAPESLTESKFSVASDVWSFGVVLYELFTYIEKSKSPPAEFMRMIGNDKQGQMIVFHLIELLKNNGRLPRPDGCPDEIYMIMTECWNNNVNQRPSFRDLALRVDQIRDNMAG
Protocol: as §1, §2, §3

Jak3 = molecular target: T3, Jak3 (Homo sapiens, UniProt P52333); assay: trFRET kinase activity assay, Jak3; type: biochemical; conditions: 1 μM ATP, mean and standard error; read-out: IC50, inhibition of Jak3 enzyme activity
T3 construct: purchased Upstate/Millipore #14–629
T3 sequence (P52333 1-1124): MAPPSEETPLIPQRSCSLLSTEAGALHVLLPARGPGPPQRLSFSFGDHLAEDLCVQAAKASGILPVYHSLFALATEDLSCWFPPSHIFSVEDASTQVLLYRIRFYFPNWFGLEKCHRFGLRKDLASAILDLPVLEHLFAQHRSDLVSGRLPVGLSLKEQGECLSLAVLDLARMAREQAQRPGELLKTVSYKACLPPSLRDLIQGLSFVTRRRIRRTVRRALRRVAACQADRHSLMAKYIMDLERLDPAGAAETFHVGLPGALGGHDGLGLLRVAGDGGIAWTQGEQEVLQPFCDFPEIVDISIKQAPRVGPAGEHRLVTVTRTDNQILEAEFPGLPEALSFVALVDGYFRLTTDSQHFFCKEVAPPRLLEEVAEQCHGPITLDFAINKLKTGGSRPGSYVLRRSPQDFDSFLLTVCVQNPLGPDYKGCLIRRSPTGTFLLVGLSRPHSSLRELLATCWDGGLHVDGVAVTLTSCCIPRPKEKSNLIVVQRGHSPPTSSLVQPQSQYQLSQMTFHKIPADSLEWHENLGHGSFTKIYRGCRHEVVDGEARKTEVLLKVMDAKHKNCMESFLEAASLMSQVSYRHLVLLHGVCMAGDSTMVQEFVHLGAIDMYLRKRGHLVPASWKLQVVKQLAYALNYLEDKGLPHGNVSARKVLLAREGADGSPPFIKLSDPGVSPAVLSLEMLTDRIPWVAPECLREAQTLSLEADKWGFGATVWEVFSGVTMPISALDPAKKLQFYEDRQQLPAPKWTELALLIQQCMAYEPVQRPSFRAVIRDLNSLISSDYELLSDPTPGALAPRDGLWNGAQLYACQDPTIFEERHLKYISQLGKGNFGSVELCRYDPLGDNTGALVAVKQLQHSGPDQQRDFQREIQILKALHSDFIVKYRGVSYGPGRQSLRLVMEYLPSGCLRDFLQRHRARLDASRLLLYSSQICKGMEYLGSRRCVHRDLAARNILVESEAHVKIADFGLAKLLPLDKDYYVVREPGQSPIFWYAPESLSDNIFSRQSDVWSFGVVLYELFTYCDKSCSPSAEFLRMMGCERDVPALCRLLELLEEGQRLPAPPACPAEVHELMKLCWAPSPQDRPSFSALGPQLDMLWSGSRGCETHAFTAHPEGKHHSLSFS
Protocol: as §1, §2, §3

human Tyk2 = molecular target: T4, human Tyk2 (Homo sapiens, UniProt P29597); assay: trFRET kinase activity assay, Tyk2; type: biochemical; conditions: human Tyk2 (880–1185), 1 μM ATP, mean and standard error; read-out: IC50, inhibition of Tyk2 enzyme activity
T4 construct: human Tyk2 enzyme (residues 880–1185); expressed in Sf9 cells; His tag (cleavable); TEV site per construct name His-Tev-huTyk2 (880–1185)-Flag) (N); Flag (C); made in house; host or cells: Sf9 insect cells
T4 sequence (P29597 880-1185): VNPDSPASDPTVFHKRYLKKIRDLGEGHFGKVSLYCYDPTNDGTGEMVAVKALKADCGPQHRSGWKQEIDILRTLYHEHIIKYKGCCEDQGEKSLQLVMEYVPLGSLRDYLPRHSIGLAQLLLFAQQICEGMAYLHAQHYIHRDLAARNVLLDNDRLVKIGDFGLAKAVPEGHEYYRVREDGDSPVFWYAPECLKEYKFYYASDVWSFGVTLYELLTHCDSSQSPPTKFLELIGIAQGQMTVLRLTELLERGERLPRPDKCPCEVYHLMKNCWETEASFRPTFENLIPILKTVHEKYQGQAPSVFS
Protocol: as §1, §2

thermolysin = molecular target: T5, thermolysin (Bacillus thermoproteolyticus, UniProt P00800); assay: Digestion of BSA control by thermolysin; type: biochemical; conditions: BSA control digested by thermolysin in the same buffer
T5 sequence (P00800 233-548): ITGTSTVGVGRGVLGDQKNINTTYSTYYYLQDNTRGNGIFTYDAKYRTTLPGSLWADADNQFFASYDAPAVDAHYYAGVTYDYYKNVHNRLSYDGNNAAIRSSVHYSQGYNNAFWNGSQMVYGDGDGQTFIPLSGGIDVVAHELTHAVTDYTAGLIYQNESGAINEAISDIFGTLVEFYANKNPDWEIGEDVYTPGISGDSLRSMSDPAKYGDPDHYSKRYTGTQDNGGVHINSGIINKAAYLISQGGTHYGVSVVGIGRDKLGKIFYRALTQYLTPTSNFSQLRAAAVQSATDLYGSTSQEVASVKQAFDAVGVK

| Structure (SMILES) | IC50 (Jak1) [nM] | reduction of the rate of degradation of the enzyme to smaller forms (<27 kDa) by thermolysin [1] [fold] | IC50 (Jak2) [nM] | IC50 (Jak3) [nM] | IC50 (human Tyk2) [nM] | inhibition of thermolysin protease activity (BSA digestion) (thermolysin) |
| --- | --- | --- | --- | --- | --- | --- |
| O=C(Nc1n[nH]c2ccc(-c3ccc(NS(=O)(=O)c4cccc(Cl)c4)cc3)cc12)c1ccco1 [Compound 2, Furan-2-carboxylic acid {5-[4-(3-chloro-benzenesulfonylamino)-phenyl]-1 H-indazol-3-yl}amide] | 10 ± 0.1 | 13 | 4 ± 1 | 41 ± 3 | < 3 | not an inhibitor of thermolysin protease activity |
| Nc1n[nH]c2ccc(-c3ccc(NS(=O)(=O)c4cccc(Cl)c4)cc3)cc12 [Compound 1, N-[4-(3-Amino-1H-indazol-5-yl)-phenyl]-3-chloro-benzenesulfonamide] | 5 ± 0.4 | – | 7 ± 2 | 42 ± 1 | – | – |
